Reference: US6495699B2, “Metalloproteinase inhibitors, pharmaceutical compositions containing them, and their use” (Agouron Pharmaceuticals Inc., priority 1996, dated 2002)

What was measured:
[1] = target: T1, catalytic domain of human stromelysin (Hsln) (Homo sapiens, UniProt P08254); test: Fluorometric MCA-peptide hydrolysis assay, stromelysin (Hsln); type: biochemical; details: apparent Ki; 10 μM MCA peptide substrate, 37° C., pH 7.5; read-out: Hsln (Ki,app)
T1 construct: The catalytic domain of human stromelysin (Hsln) was obtained by expression and purification of a C-terminally truncated prostromelysin-1; made in house; host or cells: E. coli BL21
T1 sequence (P08254 100-272 limits assumed): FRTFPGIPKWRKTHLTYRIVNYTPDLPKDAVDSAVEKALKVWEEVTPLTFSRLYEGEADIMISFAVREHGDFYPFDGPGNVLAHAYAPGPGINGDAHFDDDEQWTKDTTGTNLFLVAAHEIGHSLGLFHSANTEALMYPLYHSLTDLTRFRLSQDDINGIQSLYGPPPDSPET
Method in brief: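 APMA-activated E. coli–expressed catalytic domain, with 10 μM MCA-Pro-Leu-Gly-Leu-DPA-Ala-Arg-NH2 at 37 °C. Buffer was pH 7.5 Tricine with NaCl, CaCl2, zinc acetate and 2% final DMSO; fluorescence read at ex 328/em 393 nm over 60 min. Ki,app from steady-state rates fitted to competitive or Morrison tight-binding equations.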

[2] = target: T2, human collagenase-3 (Coll3) (Homo sapiens, UniProt P45452); test: Fluorometric MCA-peptide hydrolysis assay, collagenase-3 (Coll3); type: biochemical; details: apparent Ki; 10 μM MCA peptide substrate, 37° C., pH 7.5; read-out: Coll3 (Ki,app)
T2 construct: the catalytic domain was liberated by treatment with 2 mM APMA at room temperature overnight; ubiquitin (N, cleaved yes); made in house; host or cells: E. coli

[3] = Determination of inhibitor concentration in plasma after oral dosing; type: in vivo, Sprague Dawley rats; details: Sprague-Dawley, rat plasma, dose 50 mg/kg, vehicle B (60% aq. propylene glycol)
Description: The dosing solution consisted of the inhibitor dissolved in either a molar equivalent of HCl in water (vehicle A), in 60% aq. propylene glycol (vehicle B), or in 2.8 mg/mL sodium bicarbonate in 60% aqueous propylene glycol (vehicle C), yielding a final concentration that ranged from 10-15 mg/ml. Sprague Dawley rats (Hilltop Lab Animals, Scottsdale, Pa.) were dosed as a function of drug weight per body weight, usually 50 mgper kg. Blood was taken from the rats and centrifuged, and the plasma was stored in the freezer. Drug was extracted from a 50 μl plasma aliquot by adding 1 ml of acetonitrile, shaking for 2 minutes, centrifuging for 15 minutes at 4000 rpm, collecting the supernatant, and then evaporating it to dryness under a stream of nitrogen. The samples were reconstituted with 130 μl of mobile phase, shook for 2 minutes, and centrifuged for 15 minutes at 4000 rpm. The supernatant was collected and the samples were analyzed by injecting 100 μl of supernatant onto HPLC.
Quantitation of drug levels was accomplished by generating a standard curve of known drug amounts that were extracted from added plasma. Drug levels were plotted as a function of time and analyzed to provide area under the curve (AUC) and maximum concentration (Cmax) values.

[4] = target: T3, Human matrilysin (Matr) (Homo sapiens, UniProt P09237); test: Fluorometric MCA-peptide hydrolysis assay, matrilysin (Matr); type: biochemical; details: apparent Ki; 10 μM MCA peptide substrate, 37° C., pH 7.5; read-out: Matr (Ki,app)
T3 construct: the catalytic domain was liberated by treatment with 2 mM APMA at 37° C. for 2 hours; ubiquitin (cleaved yes); made in house; host or cells: E. coli
T3 sequence (P09237 95-267): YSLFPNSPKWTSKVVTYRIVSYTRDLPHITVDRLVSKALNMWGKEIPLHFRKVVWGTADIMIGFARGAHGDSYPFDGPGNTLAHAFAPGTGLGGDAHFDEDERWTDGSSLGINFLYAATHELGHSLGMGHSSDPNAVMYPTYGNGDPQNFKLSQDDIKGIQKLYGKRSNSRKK
Method in brief: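 Catalytic domain of E. coli-expressed human matrilysin assayed at 37° C, pH 7.5 Tricine buffer, 2% DMSO, with 10 μM MCA-Pro-Leu-Gly-Leu-DPA-Ala-Arg-NH2; fluorescence ex 328/em 393 nm over 60 min. Ki,app from steady-state rates fitted to competitive inhibition or Morrison tight-binding equation.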

CNC(=O)[C@@H](NC(=O)[C@@H](CC(=O)O)n1ccc(-c2ccc(-c3ccc(C#N)cc3)cc2)c1)C(C)(C)C [Example 5(c), 3(R)-[3-(4′-Cyanobiphenyl-4-yl)-1H-pyrrol-1-yl]-N-[2,2-dimethyl-1(S)-(methylcarbamoyl)propyl]succinamic Acid]
melting point: 142 to 144 °C
Ki [1]: 1.5 nM
Ki [2]: 0.049 nM
AUC [3]: 1.22 µg·h/mL
Cmax [3]: 0.41 µg/mL
Ki [4]: 305 nM
